Reference: ChEMBL document CHEMBL1201862, “PubChem BioAssay data set” (2004)
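48-hour exposure; five concentrations; linearly interpolated endpoints. GI50 marks 50% less growth.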 Activity calls are given as the source filed them. No stated cut-off is given here; in the data, active = GI50 up to about 1.1 µM and inactive = higher.

What was measured:
Test in all cases: DTP human tumour cell line panel, 48 h
[1] = test system: 786-0
[2] = test system: A549
[3] = test system: ACHN
[4] = test system: CAKI-1
[5] = test system: CCRF-CEM
[6] = test system: COLO 205
[7] = test system: DLD-1
[8] = test system: DMS-114
[9] = test system: DMS-273
[10] = test system: EKVX
[11] = test system: HCC 2998
[12] = test system: HCT-116
[13] = test system: HCT-15
[14] = test system: HL-60
[15] = test system: HOP-18
[16] = test system: HOP-62
[17] = test system: HOP-92
[18] = test system: HT-29
[19] = test system: IGROV-1
[20] = test system: K562
[21] = test system: KM-20L2
[22] = test system: KM12
[23] = test system: LOX IMVI
[24] = test system: LXFL 529
[25] = test system: M14
[26] = test system: M19-MEL
[27] = test system: MOLT-4
[28] = test system: Malme-3M
[29] = test system: NCI-H226
[30] = test system: NCI-H23
[31] = test system: NCI-H460
[32] = test system: NCI-H522
[33] = test system: OVCAR-3
[34] = test system: OVCAR-4
[35] = test system: OVCAR-5
[36] = test system: OVCAR-8
[37] = test system: RPMI-8226
[38] = test system: RXF 393
[39] = test system: RXF 631
[40] = test system: SF-295
[41] = test system: SF-539
[42] = test system: SK-MEL-28
[43] = test system: SK-MEL-2
[44] = test system: SK-MEL-5
[45] = test system: SK-OV-3
[46] = test system: SN12C
[47] = test system: SNB-19
[48] = test system: SNB-75
[49] = test system: SNB-78
[50] = test system: SR
[51] = test system: SW-620
[52] = test system: TK-10
[53] = test system: U-251
[54] = test system: UACC-257
[55] = test system: UACC-62
[56] = test system: UO-31
[57] = test system: XF498
[58] = test system: A498
[59] = test system: SF-268

CCCCCCCCCCCCCCCCP(=O)(OC)OC
GI50 [1]: 17.6 µM (inactive) | GI50 [2]: 17.7 µM (inactive) | GI50 [3]: 14.8 µM (inactive) | GI50 [4]: 16.6 µM (inactive) | GI50 [5]: 22.3 µM (inactive) | GI50 [6]: 17 µM (inactive) | GI50 [7]: 17.5 µM (inactive) | GI50 [8]: 16.1 µM (inactive) | GI50 [9]: 14.5 µM (inactive) | GI50 [10]: 15 µM (inactive) | GI50 [11]: 15.4 µM (inactive) | GI50 [12]: 18.9 µM (inactive) | GI50 [13]: 16.6 µM | GI50 [14]: 11.6 µM (inactive) | GI50 [15]: 15 µM (inactive) | GI50 [16]: 12 µM (inactive) | GI50 [17]: 16.4 µM (inactive) | GI50 [18]: 17.5 µM (inactive) | GI50 [19]: 16.7 µM (inactive) | GI50 [20]: 22.5 µM (inactive) | GI50 [21]: 22.4 µM (inactive) | GI50 [22]: 17.9 µM (inactive) | GI50 [23]: 16.9 µM (inactive) | GI50 [24]: 15.8 µM (inactive) | GI50 [25]: 16.3 µM (inactive) | GI50 [26]: 16.4 µM (inactive) | GI50 [27]: 16.5 µM (inactive) | GI50 [28]: 18.2 µM (inactive) | GI50 [29]: 17.1 µM (inactive) | GI50 [30]: 16.5 µM (inactive) | GI50 [31]: 17.3 µM (inactive) | GI50 [32]: 13.5 µM (inactive) | GI50 [33]: 17.8 µM (inactive) | GI50 [34]: 20.7 µM (inactive) | GI50 [35]: 13.9 µM (inactive) | GI50 [36]: 15.8 µM (inactive) | GI50 [37]: 13.2 µM (inactive) | GI50 [38]: 19 µM (inactive) | GI50 [39]: 16.9 µM (inactive) | GI50 [40]: 18 µM (inactive) | GI50 [41]: 20.6 µM (inactive) | GI50 [42]: 17.7 µM (inactive) | GI50 [43]: 16.4 µM (inactive) | GI50 [44]: 16.4 µM (inactive) | GI50 [45]: 15.2 µM (inactive) | GI50 [46]: 17.2 µM (inactive) | GI50 [47]: 15.2 µM (inactive) | GI50 [48]: 16.6 µM (inactive) | GI50 [49]: 17.7 µM (inactive) | GI50 [50]: 19.1 µM (inactive) | GI50 [51]: 14.7 µM (inactive) | GI50 [52]: 17.1 µM (inactive) | GI50 [53]: 17.9 µM (inactive) | GI50 [54]: 17.5 µM (inactive) | GI50 [55]: 14.6 µM (inactive) | GI50 [56]: 11.7 µM (inactive) | GI50 [57]: 13.1 µM (inactive)

CN(C)CCCN1N=Nc2cccc3cccc1c23
GI50 [1]: 17.9 µM (inactive) | GI50 [58]: 78.7 µM (inactive) | GI50 [2]: > 100 µM (inactive) | GI50 [3]: 56.1 µM (inactive) | GI50 [4]: > 71.3 µM (inactive) | GI50 [5]: 27.9 µM (inactive) | GI50 [6]: 34.6 µM (inactive) | GI50 [7]: > 60.1 µM (inactive) | GI50 [8]: > 42.1 µM (inactive) | GI50 [9]: 19.4 µM (inactive) | GI50 [10]: > 100 µM (inactive) | GI50 [11]: > 59 µM (inactive) | GI50 [12]: 28.8 µM (inactive) | GI50 [13]: 38.1 µM | GI50 [14]: 30.3 µM (inactive) | GI50 [15]: 99.3 µM (inactive) | GI50 [16]: > 100 µM (inactive) | GI50 [17]: 90.6 µM (inactive) | GI50 [18]: 33.3 µM (inactive) | GI50 [19]: > 100 µM (inactive) | GI50 [20]: 26.7 µM (inactive) | GI50 [21]: 54.3 µM (inactive) | GI50 [22]: > 79.3 µM (inactive) | GI50 [23]: 41.9 µM (inactive) | GI50 [24]: > 50.9 µM (inactive) | GI50 [25]: > 43.4 µM (inactive) | GI50 [26]: > 51.4 µM (inactive) | GI50 [27]: 29 µM (inactive) | GI50 [28]: > 100 µM (inactive) | GI50 [29]: > 100 µM (inactive) | GI50 [30]: > 100 µM (inactive) | GI50 [31]: 33.1 µM (inactive) | GI50 [32]: 50.9 µM (inactive) | GI50 [33]: > 100 µM (inactive) | GI50 [34]: 20.3 µM (inactive) | GI50 [35]: > 91.4 µM (inactive) | GI50 [36]: > 77.3 µM (inactive) | GI50 [37]: > 51.1 µM (inactive) | GI50 [39]: 87.5 µM (inactive) | GI50 [59]: > 85.9 µM (inactive) | GI50 [40]: > 90.8 µM (inactive) | GI50 [41]: > 60.7 µM (inactive) | GI50 [42]: > 100 µM (inactive) | GI50 [43]: > 100 µM (inactive) | GI50 [44]: > 84.9 µM (inactive) | GI50 [45]: > 100 µM (inactive) | GI50 [46]: 63.8 µM (inactive) | GI50 [47]: > 100 µM (inactive) | GI50 [48]: > 100 µM (inactive) | GI50 [49]: 62.4 µM (inactive) | GI50 [50]: 26.5 µM (inactive) | GI50 [51]: 24.3 µM (inactive) | GI50 [52]: > 100 µM (inactive) | GI50 [53]: > 74.3 µM (inactive) | GI50 [54]: > 91.8 µM (inactive) | GI50 [55]: > 100 µM (inactive) | GI50 [56]: > 64.6 µM (inactive) | GI50 [57]: 86.9 µM (inactive)

O=S(=O)(O)SC/C=C\CSS(=O)(=O)O
GI50 [1]: > 100 µM (inactive) | GI50 [58]: > 100 µM (inactive) | GI50 [2]: > 100 µM (inactive) | GI50 [3]: > 100 µM (inactive) | GI50 [4]: > 100 µM (inactive) | GI50 [6]: > 100 µM (inactive) | GI50 [7]: > 100 µM (inactive) | GI50 [8]: > 100 µM (inactive) | GI50 [9]: > 100 µM (inactive) | GI50 [10]: > 100 µM (inactive) | GI50 [11]: > 100 µM (inactive) | GI50 [12]: > 100 µM (inactive) | GI50 [13]: 65.8 µM | GI50 [14]: > 100 µM (inactive) | GI50 [15]: > 100 µM (inactive) | GI50 [16]: > 100 µM (inactive) | GI50 [17]: > 100 µM (inactive) | GI50 [18]: > 100 µM (inactive) | GI50 [19]: > 100 µM (inactive) | GI50 [20]: > 100 µM (inactive) | GI50 [21]: > 100 µM (inactive) | GI50 [22]: > 100 µM (inactive) | GI50 [23]: 29.4 µM (inactive) | GI50 [24]: > 100 µM (inactive) | GI50 [25]: > 100 µM (inactive) | GI50 [26]: > 100 µM (inactive) | GI50 [27]: 35.8 µM (inactive) | GI50 [28]: > 100 µM (inactive) | GI50 [29]: > 100 µM (inactive) | GI50 [30]: > 100 µM (inactive) | GI50 [31]: 42.2 µM (inactive) | GI50 [32]: > 100 µM (inactive) | GI50 [33]: > 100 µM (inactive) | GI50 [34]: > 100 µM (inactive) | GI50 [35]: > 100 µM (inactive) | GI50 [36]: > 100 µM (inactive) | GI50 [37]: > 100 µM (inactive) | GI50 [38]: > 100 µM (inactive) | GI50 [39]: > 100 µM (inactive) | GI50 [59]: > 100 µM (inactive) | GI50 [40]: > 100 µM (inactive) | GI50 [41]: > 100 µM (inactive) | GI50 [42]: > 100 µM (inactive) | GI50 [44]: > 100 µM (inactive) | GI50 [45]: > 100 µM (inactive) | GI50 [46]: > 100 µM (inactive) | GI50 [47]: > 100 µM (inactive) | GI50 [48]: > 100 µM (inactive) | GI50 [49]: > 100 µM (inactive) | GI50 [50]: > 100 µM (inactive) | GI50 [51]: > 100 µM (inactive) | GI50 [52]: > 100 µM (inactive) | GI50 [53]: 61.2 µM (inactive) | GI50 [54]: > 100 µM (inactive) | GI50 [55]: > 100 µM (inactive) | GI50 [56]: > 100 µM (inactive) | GI50 [57]: > 100 µM (inactive)
